Laboratory results taken from the NIST ThermoML archive (doi:10.1016/j.jct.2007.09.007).
± gives the expanded uncertainty stated by the source.

Assay: xn = mol fraction of the nth substance listed
Conditions: 100 kPa, Liquid

CC(C)OC(C)C [diisopropyl ether] + CC#N
mass density [kg/m3]
Conditions	288.15 K	293.15 K	298.15 K	303.15 K
x1 = 0.0072	786.61 ± 0.46	781.29 ± 0.47	775.9 ± 0.48	770.47 ± 0.49
x1 = 0.015	785.8 ± 0.46	780.49 ± 0.47	775.1 ± 0.48	769.68 ± 0.49
x1 = 0.0247	784.84 ± 0.46	779.54 ± 0.47	774.15 ± 0.48	768.74 ± 0.49
x1 = 0.0308	784.29 ± 0.46	778.97 ± 0.47	773.59 ± 0.48	768.17 ± 0.49
x1 = 0.0381	783.55 ± 0.47	778.25 ± 0.47	772.87 ± 0.48	767.46 ± 0.49
x1 = 0.0482	782.56 ± 0.47	777.27 ± 0.48	771.89 ± 0.48	766.48 ± 0.49
x1 = 0.0991	777.78 ± 0.48	772.47 ± 0.48	767.11 ± 0.49	761.72 ± 0.5
x1 = 0.1496	773.32 ± 0.49	768.06 ± 0.49	762.72 ± 0.5	757.34 ± 0.51
x1 = 0.2511	765.5 ± 0.5	760.24 ± 0.51	754.91 ± 0.52	749.55 ± 0.53
x1 = 0.3069	761.73 ± 0.51	756.5 ± 0.52	751.18 ± 0.53	745.83 ± 0.54
x1 = 0.3507	758.83 ± 0.52	753.58 ± 0.53	748.27 ± 0.54	742.93 ± 0.55
x1 = 0.4104	755.28 ± 0.53	750.02 ± 0.54	744.74 ± 0.55	739.4 ± 0.56
x1 = 0.4513	752.87 ± 0.54	747.67 ± 0.55	742.35 ± 0.56	737.04 ± 0.56
x1 = 0.5132	749.57 ± 0.55	744.35 ± 0.56	739.06 ± 0.57	733.73 ± 0.57
x1 = 0.56	747.13 ± 0.56	741.91 ± 0.57	736.63 ± 0.58	731.3 ± 0.58
x1 = 0.6429	743.32 ± 0.58	738.15 ± 0.58	732.87 ± 0.59	727.55 ± 0.6
x1 = 0.6938	741.1 ± 0.59	735.9 ± 0.59	730.64 ± 0.6	725.33 ± 0.61
x1 = 0.76	738.32 ± 0.6	733.12 ± 0.61	727.83 ± 0.61	722.53 ± 0.62
x1 = 0.8129	736.2 ± 0.61	731.02 ± 0.62	725.76 ± 0.63	720.46 ± 0.63
x1 = 0.8449	735 ± 0.62	729.8 ± 0.62	724.53 ± 0.63	719.26 ± 0.64
x1 = 0.904	732.62 ± 0.63	727.46 ± 0.64	722.22 ± 0.64	716.94 ± 0.65
x1 = 0.9509	730.9 ± 0.64	725.75 ± 0.65	720.52 ± 0.66	715.25 ± 0.66
x1 = 0.963	730.42 ± 0.64	725.28 ± 0.65	720.05 ± 0.66	714.78 ± 0.66
x1 = 0.9685	730.2 ± 0.65	725.06 ± 0.65	719.83 ± 0.66	714.56 ± 0.67
x1 = 0.9815	729.68 ± 0.65	724.52 ± 0.66	719.32 ± 0.66	714.06 ± 0.67
x1 = 0.9887	729.4 ± 0.65	724.27 ± 0.66	719.05 ± 0.66	713.79 ± 0.67
x1 = 0.9945	729.15 ± 0.65	724.02 ± 0.66	718.81 ± 0.67	713.55 ± 0.67
